{
  "source": "patent US20100203110A1",
  "about": "“Therapeutics for Cancer Using 3-Bromopyruvate and Other Selective Inhibitors of ATP Production” (The Johns Hopkins University, priority 2006, published 2010)",
  "key": {"VX2 tumor glycolysis": {"system": "VX2 tumor glycolysis", "experiment": "Glycolytic activity (lactic acid formation) of VX2 tumor slices", "format": "cell-based, rabbit", "method": "Glycolysis was assayed by monitoring the formation of lactic acid following the addition of glucose to a medium containing VX2 tumor slices. Specifically, freshly excised tumors were washed 3 times at 4° C. in 20 ml Chance Hess Medium containing 6.2 mM KCl, 154 mM NaCl, and 11 mM NaPi, pH 7.4. Slices, 1 g each, were then prior incubated for 30 min in a Lab-Line incubator-shaker at 37° C. in 2 ml of the same medium while shaking at 50 rpm. Glucose was then added to give a final concentration of 6 mM, after which the incubation/shaking process was continued with 0.2 ml samples being removed every 30 min for up to 2 h. These samples were subjected to centrifugation at 14,000 rpm in an Eppendorf Centrifuge (Model 5415C). Then, aliquots of the supernatant, 0.01 ml, were removed from each sample, diluted with 0.03 ml of water and subjected to lactic acid determination using the kit supplied by Sigma. The latter contains, in addition to lactic dehydrogenase and NAD+, hydrazine, and glycine buffer, pH 9.2. The mixture was incubated for 30 min at 25° C. after which the absorbance due to formation of NADH was determined at 340 nm using a Gilford Model 260 spectrophotometer. To assess the elevation of the glycolytic activity of the VX2 tumor over that of liver tissue, parallel studies were always carried out in an identical manner with 1 g liver slices derived from the host liver. Finally, in those cases where agents were tested for their capacity to inhibit glycolysis, these were introduced into the system at the prior incubation step with all subsequent steps being run in parallel with those described above for the VX2 tumor or liver alone.\nThe screen included the following 9 compounds: 2-deoxyglucose (2DOG), 2-fluoro-2-deoxyglucose, 6-fluoro-6-deoxyglucose, 3-O-methyl glucose, 5-thio-D-glucose-6-phosphate, L-glucose, D-xylose, D-lyxose, and 3-bromopyruvic acid (3BrPA). The screen was conducted by incubating VX2 tumor slices in a medium containing 6 mM glucose with 6 mM of each of these agents at 37° C. for 5 h. The use of 6 mM glucose in the medium was used to mimic the maximal amount of glucose that might be in the blood in a real in vivo situation.\nTo compare the inhibitory effects of 2DOG and 3BrPA on the glycolytic capacity of the isolated liver implanted VX2 tumor, various concentrations of 2DOG and 3BrPA were prior incubated for 30 min at 37° C. with 1 g VX2 tumor slices and glycolysis was monitored."}, "HepG2 [1]": {"system": "HepG2", "experiment": "Caspase-3 activity, HepG2", "format": "cell-based, human", "settings": "1 mM for 3 hour", "method": "(§1) Caspase-3 activity and reduced cell viability was also measured in cell lines (HepG2, THLE-2, and VX2 cell lines) following 3-bromopyruvate treatment (1 mM for 3 hour) (FIG. 6A). Caspase-3 activity increased in each cell line following treatment and cell viability decreased following treatment. An increase in caspase-3 activity indicated the mechanism of cell death is apoptotic. FIGS. 6 B and C show cell viability is reduced in each cell line with increasing 3-bromopyruvate concentration after 1 and 3 hours of treatment."}, "HepG2 [2]": {"system": "HepG2", "experiment": "Cell viability, HepG2", "format": "cell-based, human", "settings": "1 mM for 3 hour", "method": "as §1"}, "[3]": {"experiment": "Intravenous dose-escalation study in normal Lewis rats", "format": "in vivo, rat", "settings": "for therapeutic dose, intravenous: Lewis rats", "method": "In order to determine the therapeutic dose of 3-bromopyruvate for intravenous (N) administration, a dose-escalation study was conducted in normal Lewis rats (non-tumor bearing). Each group of animals (6 rats per group) received incremental doses of 3-bromopyruvate intravenously (2.5 mL of 5, 10, 15, 20, 25 and 50 mM 3-bromopyruvate)."}, "[4]": {"experiment": "Biodistribution of 14C radiolabeled 3-bromopyruvate in rabbit Vx-2 model", "format": "in vivo", "method": "In order to properly design a treatment protocol that would ensure survival of the animal with the least amount of toxicity, the biodistribution of 3-bromopyruvate given either IV or intraarterially over a period of 24 hours was investigated. For this series of experiments, radioactive 3-bromopyruvate using ^14C was synthesized. The use of ^14C labeled 3-bromopyruvate would allow monitoring in each tissue.\n36 rabbits were divided into two groups of 18 animals each. Group 1 was treated intraarterially and group 2 received intravenous injection of 3-bromopyruvate. Each group was further subdivided into six groups of three rabbits each, corresponding to various time points of sacrifice (0, 30, 60, 120 and 240 minutes and 24 hours). All rabbits were fasted for 24 hours prior to treatment. The rabbits treated intraarterially received a one-hour infusion of 25 cc of 1.75 mM 3-bromopyruvate in PBS and those treated intravenously received a one-hour infusion of 25 cc of 20 mM 3-bromopyruvate in PBS. The difference in doses of 3-bromopyruvate between intraarterial and intravenous administration is based on the optimal dose for each method of administration. Radiolabeled 3-bromopyruvate (200 μCi, 100 μL) was added to each 25 ml treatment solution. One hour before sacrifice, 1 ml of 18FDG (1 mCi) was injected via an ear vein to monitor glucose uptake.\nThe purpose of the injection of FDG was to correlate the effects of 3-bromopyruvate with glucose uptake. […] This finding, also present when the drug was given intraarterially, was more pronounced and the accumulation of 3-bromopyruvate is prolonged compared to IV administration."}, "[5]": {"settings": "IA one-hour infusion 25 cc 1.75 mM"}},
  "data": [
    {"compound": "O=C(O)C(=O)CBr", "note": "[3-bromopyruvate]", "values": [
      {"measurement": "inhibition of VX2 tumor glycolysis (screen)", "setting": "VX2 tumor glycolysis; 6 mM agent, 6 mM glucose, VX2 tumor slices, 37° C., 5 h", "value": "almost completely inhibited"},
      {"measurement": "concentration for maximal / complete inhibition of glycolysis", "setting": "VX2 tumor glycolysis; VX2 tumor slices, 2DOG maximal (70%), 3BrPA complete", "value": "about 15 mM"},
      {"measurement": "IC50", "setting": "VX2 tumor glycolysis; prior incubated 30 min at 37° C. with 1 g VX2 tumor slices, read-out: half maximal inhibition of glycolysis", "value": 2.4, "unit": "mM"},
      {"measurement": "Caspase-3 activity", "setting": "HepG2 [1]", "value": "increased"},
      {"measurement": "cell viability", "setting": "HepG2 [2]", "value": "decreased"},
      {"measurement": "organs by histopathologic analysis", "setting": "[3]; 50 mM IV", "value": "normal"},
      {"measurement": "therapeutic dose, intravenous", "setting": "[3]; 2.5 mL IV, observed 3 weeks", "value": 20, "unit": "mM"},
      {"measurement": "therapeutic dose, intravenous", "setting": "[3]; IV", "value": 16.8, "unit": "mg/kg"},
      {"measurement": "tolerability", "setting": "[3]; all doses lower than 20 mM IV", "value": "well-tolerated and caused no deaths"},
      {"measurement": "clinical distress (appetite, urination, body weight)", "setting": "[3]; doses lower than 20 mM IV", "value": "no evidence of clinical distress"},
      {"measurement": "major organs at necropsy", "setting": "[3]; doses lower than 20 mM IV", "value": "without any damage"},
      {"measurement": "mortality", "setting": "[3]; highest dose of 50 mM IV", "value": "all the animals in the group died"},
      {"measurement": "time to death", "setting": "[3]; highest dose of 50 mM IV", "value": "≤ 15", "unit": "min"},
      {"measurement": "levels in the brain", "setting": "[4]; 14C label", "value": "virtually undetectable"},
      {"measurement": "accumulation in other organs including brain, lungs and heart", "setting": "[4]; [5]", "value": "no accumulation"},
      {"measurement": "retention in the tumor", "setting": "[4]; [5]", "value": "stayed within the tumor up to 24 hours"},
      {"measurement": "clearance route", "setting": "[4]; IA, lesser extent through the kidneys", "value": "mostly through the liver"},
      {"measurement": "uptake by organs (heart, lung and brain)", "setting": "[4]; IV one-hour infusion 25 cc 20 mM", "value": "no significant uptake"},
      {"measurement": "time of maximal tumor uptake", "setting": "[4]; after IV injection", "value": 4, "unit": "h"},
      {"measurement": "blood brain barrier penetration", "setting": "[4]; rabbit, in vivo", "value": "does not cross the blood brain barrier"},
      {"measurement": "inhibition of FDG (glucose) uptake in organs", "setting": "[4]; rabbit, in vivo", "value": "no inhibition"},
      {"measurement": "tissue damage at histopathologic analysis", "setting": "[4]; rabbit, in vivo", "value": "none of the organs showed any associated tissue damage"}
    ]}
  ]
}
